Results taken from BindingDB's records for doi:10.1021/np070259w (Institute of Plant Biochemistry, 2007).
Counter-ions that a name gives are not always drawn.

Assay: Inhibition of equine BChE at 100 uM by Ellman's method

CNC(=O)Oc1ccc2c(c1)[C@]1(C)CCN(C)[C@@H]1N2C [(3aS,8aR)-1,3a,8-trimethyl-1,2,3,3a,8,8a-hexahydropyrrolo[2,3-b]indol-5-yl methylcarbamate hydrochloride]
IC50: 3.5 µM
